Reference: patent publication US7390508B2, “Use of xenon with hypothermia for treating neonatal asphyxia” (Protexeon Limited, priority 2003, dated 2008)
“And” between values parts separate entries of the source, which are not always exact repeats. Identical values can stand only once.

How the values were obtained:
[1] = xenon dissolved or dispersed in lipid emulsion; format: physicochemical; settings: 20° C. and normal pressure
Description: It has been established that appreciable amounts of xenon maybe added to a lipid emulsion. Even by the simplest means, at 20° C. and normal pressure, xenon can be dissolved or dispersed in concentrations of 0.2 to 10 ml or more per ml of emulsion. The concentration of dissolved gas is dependent on a number of factors, including temperature, pressure and the concentration of lipid.

[2] = test system: p7 Sprague-Dawley rat pups; experiment: 7-day-old rat model of focal HI, treatment 4 h post-insult, cresyl violet histology of apoptotic, necrotic and viable cells (Example 2); format: in vivo
Description: p7 Sprague-Dawley rat pups (weighing between 10 and 14 g) from Harlan, U.K. were subjected to a previously described model of HI injury (Levine, 1960; Rice et al, 1981). In brief, rat pups were anaesthetised with 2% isoflurane before undergoing permanent unilateral ligation of the right common carotid artery, using a midline neck incision and 5.0 silk suture. Once surgery was complete, pups recovered from the anaesthesia and were then returned to the dam until the time of experimentation.
1 hr after surgery, pups were exposed to hypoxia by placing them into purpose-built, airtight chambers that were partially submerged in a 37° C. water bath (FIG. 9). […] Hypoxia was induced by a continuous flow of humidified 8% oxygen, balanced with nitrogen, and this mixture was monitored every 15 minutes by a Datex Ohmeda (Bradford, U.K.). (All gases were supplied by BOC.)
Following HI, pups were returned to the dam for 4 hrs to recover, after which time they were subjected to 90 minutes of one of the experimental interventions below. […] No significant difference existed between the two time periods and thus 4 h post-insult was chosen as the time to apply the intervention, as it was thought to be the most clinically relevant.
Pups were returned to their mothers until sacrifice at 16, 24 and 48 h following treatment (Northington et al, 2001) (FIG. 10).
The same experimental paradigm was followed for treatment with xenon, but instead of hypothermia, the water bath was maintained at 37° C. and the gas mixture was changed to 25% oxygen and 75% xenon for 90 minutes. Gas was delivered into a purpose-built, closed system to minimise xenon leakage (FIG. 9). Once again, the pups were returned to their mothers until sacrifice.
In the combination paradigm, the rats underwent both hypothermia and xenon concurrently for 90 minutes. Again, the pups were placed in airtight chambers, but on this occasion, their temperatures were maintained at 35° C. and the gas mixture consisted of 25% oxygen, only 20% xenon and balanced nitrogen. This temperature and xenon concentration was shown in preliminary experiments, to confer no neuroprotective benefit to the developing brain when used independently. Thus, by using these values, any neuroprotective benefit at all is indicative of synergy between the two agents. Following treatment, pups were returned to their mothers until sacrifice.
Neuronal injury was assessed by histological analysis of paraffin brain slices stained with cresyl violet. Cresyl violet is a basic stain that binds to acidic components of neuronal cytoplasm such as RNA-rich ribosomes, and also the nuclei and nucleoli of nerve cells.
Each experimental group consisted of three time groups (16, 24, 48 h), and each time group contained three animals, (thus there were nine animals in total for each experimental group). Three slides per animal were chosen from the area of the brain that was −3.6 mm from the bregma (FIG. 11). Slides were then sorted into time groups and the examiner was blinded to the intervention.
Two areas from the ipsilateral side of each brain were analysed using a BX60 light microscope (Olympus, Southall, U.K.)—one in the cortex and one in the gyrus of the hippocampus (FIG. 11). A 40× objective lens with a grid was used to count the total number of cells that appeared in the grid. Cells were scored as either viable, apoptotic, or necrotic based on their morphological appearance, and the percentage of each cell type was noted down for each of the brain areas. An Axiocam digital camera (Zeiss, Göttingen, Germany) was used along with the microscope to take photomicrographs of the brain slices.
The criteria for assigning cells to each category was as follows (FIG. 12): • 1. Cells undergoing either type of cell death (apoptosis or necrosis) took up the cresyl violet stain more intensely than viable cells, which were regularly shaped with pale cytoplasm, and a clearly visible, darker nucleus. • 2. […]

[3] = test system: Seven day old postnatal Sprague-Dawley rats; experiment: Neonatal asphyxia model, xenon during or 2 h after hypoxia (Example 1); format: in vivo, rat
Description: Seven day old postnatal Sprague-Dawley rats underwent right common carotid artery ligation under surgical anaesthesia (1%-1.5% isoflurane in pure oxygen). After ligation, the animals were returned to their mothers and placed in a specially designed area with constant of room temperature (23° C.) and humidity (48%). One hour after surgery, neonatal rats were placed in specially designed chamber with 8% oxygen combined with 0, 20, 40, 60 or 70% Xenon (with nitrogen making up the balance) for 90 min at 37° C. (temperature kept by water bath running outside chambers). At post-experimental day 7, rats (14 day old) were killed and their brains removed. The ratio of right hemisphere weight against left (R/L ratio) was calculated. Rat pups in some groups were allowed to live up to 30 days of postnatal age, at which time their neuromotor function and co-ordination were assessed with established protocols (Neuromotor testing and Rotarod testing).
The concentration-dependence of xenon neuroprotection (ratio right hemisphere weight/left against xenon concentration) is shown in FIG. 4. […] Control animals were subjected to carotid ligation but no hypoxia was given. Results are mean±SEM (n=5−8). * P<0.01 vs 8% O2.
At postnatal day 7 the right carotid artery was ligated and rat pups were exposed to a hypoxic environment (8% oxygen+70% xe and balance with nitrogen) for 90 min. Thirty days after the insult, rats were evaluated for neuromotor function (A) using a panel that included assays of prehensile traction, strength, and balance beam performance (graded on a 0-9 scale) and (B) balance on a Rotarod, a standard test of balance and neuromotor function. The data point from an individual rat is the sum of three tests. The horizontal bars indicate the median for each group.
The neuroprotective effect (ratio of right hemisphere/left) observed with N2 and xenon respectively is shown in FIG. 6, when xenon is administered 2 hours post HI insult. […]

neuronal cultures = experiment: oxygen-glucose deprivation (OGD)-induced lactate dehydrogenase (LDH) release in neuronal cultures; format: cell-based; settings: for ED50 for xenon, OGD-induced LDH release: 75 minutes OGD, 6 hours of recovery, xenon concentration % atm, mean +/- SEM
Description: The effect of mild hypothermia on the neuroprotective effect of xenon (LDH release against xenon concentration, % atm) is shown in FIG. 7. […] Cooling by 4 degrees greatly enhances the potency of xenon in blocking LDH release. […] (red), or at 33° C. (blue). […] Neuronal injury is expressed as a percentage of the maximal LDH release after 75 minutes of OGD and 6 hours of recovery in the absence of either xenon or hypothermia. Points represent mean values, with error bars indicating standard errors.
From the slope of such a plot the enthalpy change of the process can be calculated, its size being a measure of the temperature dependence. The data in red show the effect of temperature on LDH release in the absence of xenon. The reduction of release as the temperature is reduced is expected but modest. […] Hypothermia therefore appears to greatly enhance the neuroprotective effects of xenon.

[4] = 20% xenon alone, 37° C., cortex, 16 h, mean±SD (n=3)
[5] = 75% xenon, 37° C., 90 min, cortex, 16 h, mean±SD (n=3)
[6] = 75% xenon, 37° C., 90 min, gyrus, 16 h, mean±SD (n=3)
[7] = combination 20% xenon + 35° C. hypothermia, cortex, 16 h, mean±SD (n=3)

[Xe] [xenon]
concentration of xenon dissolved or dispersed in lipid emulsion [1]: 0.2 to 10 ml per ml of emulsion
neuroprotection ([2]; 20% xenon alone, 37° C.): no neuroprotective effect
percentage of apoptosis [2, 4]: 36%±5.7% and 35.8%±5.7%
percentage of viability [2, 4]: 51%±7.8%
apoptosis (percentage of total cell number) [2, 5]: 8.5%±1.6%
viable cell count (percentage of total cell number) [2, 5]: 80.6%±0.2%
apoptosis (percentage of total cell number) [2, 6]: 13.9%±2.4%
viable cell count (percentage of total cell number) [2, 6]: 77.1%±3.3%
anti-necrosis ([2]; 75% xenon, 16 and 24 h groups): not anti-necrotic
anti-apoptosis compared to positive control animals ([2]; 75% xenon, 24 and 48 h groups, cortex and gyrus): statistically significant anti-apoptosis
percentage of viable cells vs. positive controls ([2]; 75% xenon, 24 h, cortex and gyrus): significant increase in the percentage of viable cells
necrosis (percentage of total cell number) ([2]; 75% xenon, cortex, 48 h, mean±SD (n=3)): 10.7%±0.4%
anti-necrosis ([2]; 75% xenon, gyrus, 48 h): not however anti-necrotic
neuroprotection ([2]; combination 20% xenon + 35° C. hypothermia, both areas of the brain, 16, 24 and 48 h): profound synergistic neuroprotection
apoptosis (percentage of total cell number) [2, 7]: 7.2%±2%
viable cells (percentage of total cell number) [2, 7]: 82.3%±4.9%
type of protection ([2]; combination 20% xenon + 35° C. hypothermia, gyrus, 24 h): anti-necrotic as well as anti-apoptotic protection
concentration-dependence of xenon neuroprotection (ratio right hemisphere weight/left) ([3]; 0, 20, 40, 60 or 70% xenon with 8% oxygen for 90 min at 37° C., brains at 14 days): Neuroprotection is evident even at sub-anaesthetic concentrations
neuroprotective effect (ratio of right hemisphere/left) ([3]; 70% Xe+30% O2 for 90 min, given 2 hours after the end of the hypoxic period): effective in providing neuroprotection
gross anatomical appearance of brain slices ([3]; 70% xenon breathed during the 90 min hypoxic period): look close to normal
temperature dependence of LDH release (van't Hoff plot) (neuronal cultures; 12.5% xenon present): very large and unexpected
ED50 for xenon, OGD-induced LDH release (neuronal cultures; 33° C.): 11.5+/−2.0%
ED50 for xenon, OGD-induced LDH release (neuronal cultures; 37° C.): 35.9+/−2.15%
